Numbered stars: 1 amine (or outer) side, 2 acyl side, 3 side chain; on linkers, the order of the positions; unused ones are H or OH. Bridge positions count the residues as written; N and C are the ends. Square brackets hold non-standard residues; d marks the D form. Peptide text beside a SMILES is read from it. * marks the point of attachment. TBMB(SCH2CH2NH-DOTA) = O=C(O)CN1CCN(CC(=O)O)CCN(CC(=O)NCCSCc2cc(C[*:1])cc(C[*:2])c2)CCN(CC(=O)O)CC1; X5 = O=C(O)CN1CCN(CC(=O)O)CCN(CC(=O)NCCSCc2cc(CSC[C@@H](CO)N[*:2])cc(C[*:1])c2)CCN(CC(=O)O)CC1; X1 = O=C(O)CN1CCN(CC(=O)O)CCN(CC(=O)N2CCN(Cc3cc(C[*:1])cc(C[*:2])c3)CC2)CCN(CC(=O)O)CC1; X52 = NCCOCCOCC(=O)N1CCN(Cc2cc(C[*:1])cc(C[*:2])c2)CC1; X39 = NCCOCCOCC(=O)NCCSCc1cc(C[*:1])cc(C[*:2])c1; Pyridine(3,5-bisCH2) = c1ncc(C[*:2])cc1C[*:1]; mXylylene = c1cc(C[*:1])cc(C[*:2])c1; X25 = NCCSCc1cc(C[*:1])cc(C[*:2])c1; X41 = NCCCCCC(=O)NCCCOCCOCCOCCCN*; Suc = O=C(CCC(=O)[*:2])[*:1]; Nle = CCCC[C@H](N)C(=O)O; Hexanoyl = CCCCCC(=O)*; Sar = CNCC(=O)O

Assay [1] concerns the target T1, FAP-expressing human WI-38 fibroblasts (Homo sapiens, UniProt Q12884).
T1 construct: FAP-expressing human WI-38 fibroblasts (ECACC) were cultured in EMEM; host or cells: WI-38 human fibroblasts
T1 sequence (Q12884 1-760): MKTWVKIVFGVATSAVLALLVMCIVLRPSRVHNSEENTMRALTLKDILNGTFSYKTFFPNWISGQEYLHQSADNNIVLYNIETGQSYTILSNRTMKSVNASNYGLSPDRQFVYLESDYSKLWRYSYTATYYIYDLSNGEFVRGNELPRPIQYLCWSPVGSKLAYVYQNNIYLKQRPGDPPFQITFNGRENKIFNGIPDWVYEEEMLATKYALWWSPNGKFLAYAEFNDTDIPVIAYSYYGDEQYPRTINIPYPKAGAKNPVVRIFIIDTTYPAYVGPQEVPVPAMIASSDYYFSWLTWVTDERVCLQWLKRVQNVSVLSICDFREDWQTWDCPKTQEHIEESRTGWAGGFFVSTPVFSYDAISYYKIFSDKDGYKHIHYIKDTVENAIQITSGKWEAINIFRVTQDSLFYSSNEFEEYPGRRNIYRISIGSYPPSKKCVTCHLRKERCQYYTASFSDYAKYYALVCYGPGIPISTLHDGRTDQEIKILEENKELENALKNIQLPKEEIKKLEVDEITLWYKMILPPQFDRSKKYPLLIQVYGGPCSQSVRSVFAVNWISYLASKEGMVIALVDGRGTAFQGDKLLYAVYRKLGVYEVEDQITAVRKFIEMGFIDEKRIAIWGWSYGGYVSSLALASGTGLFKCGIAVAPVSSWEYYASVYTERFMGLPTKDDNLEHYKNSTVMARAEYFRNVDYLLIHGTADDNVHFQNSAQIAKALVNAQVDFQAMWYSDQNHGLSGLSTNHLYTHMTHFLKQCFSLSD
Nature of the assay: Competitive FACS binding assay. The settings on record: competition with 3 nM Cy5-labeled compound, 4° C., 1 hour; for IC50: pIC50 Category (FACS). The procedure:
Cells were analyzed in an Attune NxT flow cytometer. […]

The next assay concerns the target T2, Human recombinant FAP (Homo sapiens, UniProt Q12884).
T2 sequence (Q12884 1-760): T1 sequence (Q12884 1-760)
Put plainly: FRET-based FAP protease activity assay. Type of assay: biochemical. The arrangement: purchased R&D systems 3715-SE. The settings on record: pIC50 Category (Activity), FRET substrate, 37° C.

For the compound `CCCCCC(=O)N[C@H]1CSCc2cncc(c2)CSC[C@@H](C(=O)N[C@@H](CC(=O)O)C(N)=O)NC(=O)[C@H](Cc2ccccc2)NC(=O)[C@H](CCC(N)=O)NC(=O)[C@H]([C@@H](C)O)NC(=O)[C@@H]2CCCN2C(=O)[C@@H]2CCCN2C1=O` [3BP-3519, Hex-[Cys(3Lut)-Pro-Pro-Thr-Gln-Phe-Cys]-Asp-NH2] (Hexanoyl-CPPTQFCD-NH2; linker 1-7 via Pyridine(3,5-bisCH2)), the IC50 (in assay [1] (WI-38 fibroblasts); on Human recombinant FAP (recombinant human FAP)) was less than 10 nM throughout.

In the case of `CCCCCC(=O)N[C@H]1CSCc2cc(cc(CN3CCN(C(=O)CN4CCN5CCN6CCN(CC4)CC(=O)[O][Eu]([O]C(=O)C6)[O]C(=O)C5)CC3)c2)CSC[C@@H](C(=O)N[C@@H](CC(=O)O)C(N)=O)NC(=O)[C@H](Cc2ccccc2)NC(=O)[C@H](CCC(N)=O)NC(=O)[C@H]([C@@H](C)O)NC(=O)[C@@H]2CCCN2C(=O)[C@@H]2CCCN2C1` [3BP-3661, Europium-Complex of Hex-[Cys(tMeBn(DOTA-PP))-Pro-Pro-Thr-Gln-Phe-Cys]-Asp-NH2], the IC50 (in assay [1]; on Human recombinant FAP) was less than 10 nM each time.

As to `CCCCCC(=O)N[C@H]1CSCc2cc(CSCCNC(=O)CN3CCN4CCN5CCN(CC3)CC(=O)[O][Eu]([O]C(=O)C4)[O]C(=O)C5)cc(c2)CSC[C@@H](C(=O)O)NC(=O)[C@H](Cc2ccccc2)NC(=O)[C@H](CCC(N)=O)NC(=O)[C@H]([C@@H](C)O)NC(=O)[C@@H]2CCCN2C(=O)[C@@H]2CCCN2C1` [3BP-3662, Europium-Complex of Hex-[Cys(tMeBn(DOTA-AET))-Pro-Pro-Thr-Gln-Phe-Cys]-OH], the IC50 (in assay [1]; at Human recombinant FAP) was less than 10 nM throughout.

`CCCCCC(=O)N[C@H]1CSCc2cc(CSCCNC(=O)CN3CCN(CC(=O)O)CCN(CC(=O)O)CCN(CC(=O)O)CC3)cc(c2)CSC[C@@H](C(=O)O)NC(=O)[C@H](Cc2cccnc2)NC(=O)[C@H](CCC(N)=O)NC(=O)[C@H]([C@@H](C)O)NC(=O)[C@@H]2CCCN2C(=O)[C@@H]2CCCN2C1` [3BP-3664, Hex-[Cys(tMeBn(DOTA-AET))-Pro-Pro-Thr-Gln-Mpa-Cys]-OH]: the IC50 (in assay [1]; at Human recombinant FAP) was less than 10 nM in each case.

Take `CCCCCS(=O)(=O)N[C@H]1CSCc2cc(CSCCNC(=O)CN3CCN(CC(=O)O)CCN(CC(=O)O)CCN(CC(=O)O)CC3)cc(c2)CSC[C@@H](C(=O)O)NC(=O)[C@H](Cc2ccccc2)NC(=O)[C@H](CCC(N)=O)NC(=O)[C@H]([C@@H](C)O)NC(=O)[C@@H]2CCCN2C(=O)[C@@H]2CCCN2C1=O` [3BP-3691, Pentyl-SO2-[Cys(tMeBn(DOTA-AET))-Pro-Pro-Thr-Glu-Phe-Cys]-OH]: the “pIC50 Category (FACS)” value in assay [1] is given as “A (pIC50 values >8.0)”. The IC50 at Human recombinant FAP was 10 to 79.4 nM.

`CCCCCC(=O)N[C@H]1CSCc2cc(CSCCNC(=O)CN3CCN(CC(=O)O)CCN(CC(=O)O)CCN(CC(=O)O)CC3)cc(c2)CSC[C@@H](C(N)=O)NC(=O)[C@H](Cc2ccccc2)NC(=O)[C@H](CCC(N)=O)NC(=O)[C@H]([C@@H](C)O)NC(=O)[C@@H]2CCCN2C(=O)CN(C)C1=O` [3BP-3744, Hex-[Cys(tMeBn(DOTA-AET))-Nmg-Pro-Thr-Gln-Phe-Cys]-NH2] (Hexanoyl-C[Sar]PTQFC-NH2; linker 1-7 via TBMB(SCH2CH2NH-DOTA)): the IC50 (in assay [1]; at Human recombinant FAP) was less than 10 nM throughout.

With `CCCCCC(=O)N[C@H]1CSCc2cc(CSCCNC(=O)CN3CCN(CC(=O)O)CCN(CC(=O)O)CCN(CC(=O)O)CC3)cc(c2)CSC[C@@H](CO)NC(=O)[C@H](Cc2ccccc2)NC(=O)[C@H](CCC(N)=O)NC(=O)[C@H]([C@@H](C)O)NC(=O)[C@@H]2CCCN2C(=O)[C@@H]2CCCN2C1=O` [3BP-3762, Hex-[Cys(tMeBn(DOTA-AET))-Pro-Pro-Thr-Gln-Phe-Cysol]] (Hexanoyl-CPPTQF; linker 1-C via X5), the results for the IC50 (in assay [1]; at Human recombinant FAP) were greater than 1000 nM and 100 to 794 nM, respectively.

As to `CCCCCC(=O)N[C@H]1CSCc2cc(CSCCNC(=O)CN3CCN(CC(=O)O)CCN(CC(=O)O)CCN(CC(=O)O)CC3)cc(c2)CSC[C@@H](CO)NC(=O)[C@H](Cc2ccccc2)NC(=O)[C@H](CCC(N)=O)NC(=O)[C@H]([C@@H](C)O)NC(=O)[C@@H]2CCCN2C(=O)[C@@H]2CCCN2C1=O` [3BP-3767, Hex-[Cys(tMeBn(DOTA-AET))-Pro-Pro-Thr-Gln-Phe-Cysol]] (Hexanoyl-CPPTQF; linker 1-C via X5), the IC50 (in assay [1]; at Human recombinant FAP) was less than 10 nM each time.

Regarding `CCCCCC(=O)N[C@H]1CSCc2cc(cc(CN3CCN(C(=O)CN4CCN5CCN6CCN(CC4)CC(=O)[O][In]([O]C(=O)C6)[O]C(=O)C5)CC3)c2)CSC[C@@H](C(=O)O)NC(=O)[C@H](Cc2ccccc2)NC(=O)[C@H](CCC(N)=O)NC(=O)[C@H]([C@@H](C)O)NC(=O)[C@@H]2CCCN2C(=O)[C@@H]2CCCN2C1=O` [3BP-3770, Hex-[Cys(tMeBn(InDOTA-PP))-Pro-Pro-Thr-Gln-Phe-Cys]-OH], the IC50 (in assay [1]; at Human recombinant FAP) was less than 10 nM each time.

In the case of `CCCCCC(=O)N[C@H]1CSCc2cc(cc(CN3CCN(C(=O)CN4CCN(CC(=O)O)CCN(CC(=O)O)CCN(CC(=O)O)CC4)CC3)c2)CSC[C@@H](C(=O)O)NC(=O)[C@H](Cc2ccccc2)NC(=O)[C@H](CCC(N)=O)NC(=O)[C@H]([C@@H](C)O)NC(=O)[C@@H]2CCCN2C(=O)CN(C)C1=O` [3BP-3771, Hex-[Cys(tMeBn(DOTA-PP))-Nmg-Pro-Thr-Gln-Phe-Cys]-OH] (Hexanoyl-C[Sar]PTQFC-OH; linker 1-7 via X1), the IC50 (in assay [1]; at Human recombinant FAP) was less than 10 nM throughout.

Regarding `CCCCCC(=O)N[C@H]1CSCc2cc(cc(CN3CCN(C(=O)COCCOCCN)CC3)c2)CSC[C@@H](C(=O)N[C@@H](CC(=O)O)C(N)=O)NC(=O)[C@H](Cc2ccccc2)NC(=O)[C@H](CCC(N)=O)NC(=O)[C@H]([C@@H](C)O)NC(=O)[C@@H]2CCCN2C(=O)[C@@H]2CCCN2C1=O` [3BP-3967, Hex-[Cys-(tMeBn(H-O2Oc-PP))-Pro-Pro-Thr-Gln-Phe-Cys]-Asp-NH2] (Hexanoyl-CPPTQFCD-NH2; linker 1-7 via X52), the IC50 (in assay [1]; at Human recombinant FAP) was less than 10 nM in each case.

`CCCC[C@H](NC(=O)CCC(=O)NCCCOCCOCCOCCCNC(=O)CCCCCN)C(=O)N[C@H]1CSCc2cccc(c2)CSC[C@@H](C(=O)N[C@@H](CC(=O)O)C(N)=O)NC(=O)[C@H](Cc2ccccc2)NC(=O)[C@H](CCC(N)=O)NC(=O)[C@H]([C@@H](C)O)NC(=O)[C@@H]2CCCN2C(=O)[C@@H]2CCCN2C1=O` [3BP-3980, H-Ahx-Ttds-Nle-[Cys-(3MeBn)-Pro-Pro-Thr-Gln-Phe-Cys]-Asp-NH2] ({X41-Suc}-[Nle]CPPTQFCD-NH2; linker 2-8 via mXylylene): the half-inhibitory concentration (IC50) (in assay [1]; at Human recombinant FAP) was less than 10 nM throughout.

On to `CCCCCC(=O)N[C@H]1CSCc2cc(CSCCN)cc(c2)CSC[C@@H](C(=O)N[C@@H](CC(=O)O)C(N)=O)NC(=O)[C@H](Cc2ccccc2)NC(=O)[C@H](CCC(N)=O)NC(=O)[C@H]([C@@H](C)O)NC(=O)[C@@H]2CCCN2C(=O)[C@@H]2CCCN2C1=O` [3BP-3981, Hex-[Cys-(tMeBn(H-AET))-Pro-Pro-Thr-Gln-Phe-Cys]-Asp-NH2] (Hexanoyl-CPPTQFCD-NH2; linker 1-7 via X25), for which the IC50 was 10 to 79.4 nM in assay [1] and less than 10 nM at Human recombinant FAP.

Consider `CCCCCC(=O)N[C@H]1CSCc2cc(CSCCNC(=O)COCCOCCN)cc(c2)CSC[C@@H](C(=O)N[C@@H](CC(=O)O)C(N)=O)NC(=O)[C@H](Cc2ccccc2)NC(=O)[C@H](CCC(N)=O)NC(=O)[C@H]([C@@H](C)O)NC(=O)[C@@H]2CCCN2C(=O)[C@@H]2CCCN2C1=O` [3BP-4003, Hex-[Cys-(tMeBn(H-O2Oc-AET))-Pro-Pro-Thr-Gln-Phe-Cys]-Asp-NH2] (Hexanoyl-CPPTQFCD-NH2; linker 1-7 via X39), for which the IC50 (in assay [1]; at Human recombinant FAP) was less than 10 nM in each case.

`CCCC[C@H](NC(=O)CCC(=O)NCCCOCCOCCOCCCNC(=O)CCCCCN)C(=O)N[C@H]1CSCc2cc(cc(CN3CCN(C(=O)CN4CCN(CC(=O)O)CCN(CC(=O)O)CCN(CC(=O)O)CC4)CC3)c2)CSC[C@@H](C(=O)N[C@@H](CC(=O)O)C(N)=O)NC(=O)[C@H](Cc2ccccc2)NC(=O)[C@H](CCC(N)=O)NC(=O)[C@H]([C@@H](C)O)NC(=O)[C@@H]2CCCN2C(=O)[C@@H]2CCCN2C1=O` [3BP-4004, H-Ahx-Ttds-Nle-[Cys-(tMeBn(DOTA-PP))-Pro-Pro-Thr-Gln-Phe-Cys]-Asp-NH2] ({X41-Suc}-[Nle]CPPTQFCD-NH2; linker 2-8 via X1): the values for the IC50 (in assay [1]; at Human recombinant FAP) were 10 to 79.4 nM and less than 10 nM, respectively.

Values taken from patent publication US20220315554A1, “COMPOUNDS COMPRISING A […] LIGAND AND USE THEREOF” (priority 2019, published 2022).
